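Method: 48-hour compound exposure of cells in 96-well plates, five concentrations, linear interpolation of endpoints. GI50 is the concentration that inhibits growth by half.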 Calls of active or inactive are those of the source. No stated cut-off is given here; in the data, active = GI50 up to about 1.1 µM and inactive = higher. Where only a bound is given, the exact number is not on record here.

Here are results for five compounds from ChEMBL document CHEMBL1201862, “PubChem BioAssay data set” (2004).

Test systems include SK-MEL-28; HOP-62; UO-31; OVCAR-8; MOLT-4; IGROV-1; EKVX; SF-539; SNB-75; OVCAR-3; Malme-3M; SW-620; COLO 205; OVCAR-4; M14; SN12C.
Holding throughout (test): NCI tumour cell line growth inhibition, 48 h

Regarding `CCCCN(CCCC)C(=Nc1ccccc1)N(CCCC)CCCC`, the GI50 in the test on SK-MEL-28 is 3.1 µM (inactive); in the test with HOP-62, 6.87 µM (inactive); in the test with UO-31, 2.81 µM (inactive); in the test on OVCAR-8 it was 9.25 µM (inactive); with MOLT-4, 2.72 µM (inactive); with IGROV-1 it was 3.15 µM (inactive). Moreover, the GI50 was 4.35 µM (inactive) in the test on EKVX; 11.4 µM (inactive) in the test with SF-539; 16.4 µM (inactive) in the test on SNB-75; 3.3 µM (inactive) in the test on OVCAR-3; 7.94 µM (inactive) in the test with Malme-3M; 3.54 µM (inactive) in the test with SW-620. Besides, the GI50 in the test with COLO 205 was 2.77 µM (inactive).
On to `Cc1ccc(C(=O)NCCN(C)C)c2nc3ccccc3cc12`, for which the GI50 was 1.95 µM (inactive) in the test with SK-MEL-28; 8.24 µM (inactive) in the test on HOP-62; 2.49 µM (inactive) in the test with UO-31; 0.622 µM (active) with OVCAR-8; 0.608 µM (active) with MOLT-4; 6.58 µM (inactive) with IGROV-1. The GI50 in the test on EKVX is 1.73 µM (inactive); in the test with OVCAR-4, 3.74 µM (inactive); in the test with SNB-75 it was 1.52 µM (inactive); in the test on OVCAR-3, 1.32 µM (inactive); with Malme-3M, 2.54 µM (inactive); with M14 it was 2.69 µM (inactive). Also, the GI50 in the test on SW-620 is 0.445 µM (active); in the test on SN12C, 0.809 µM (active); in the test on COLO 205 it was 1.57 µM (inactive).
On to `Cc1ccc2c(ccc(/C=C\c3cc(C)c4cccnc4c3O)[n+]2C)c1`, for which the GI50 was 5.5 µM (inactive) with HOP-62; 15.7 µM (inactive) in the test on UO-31; 0.912 µM (active) in the test with OVCAR-8; 1.05 µM (active) in the test on MOLT-4; 6.24 µM (inactive) in the test on IGROV-1; 15.9 µM (inactive) with EKVX. Besides, the GI50 with OVCAR-4 was 14.4 µM (inactive); with SF-539, 1.64 µM (inactive); in the test on OVCAR-3, 2.01 µM (inactive); with Malme-3M, 8.41 µM (inactive); in the test with M14, 0.664 µM (active); in the test with SW-620, 1.66 µM (inactive). The GI50 with SN12C is 2 µM (inactive); with COLO 205, 9.89 µM (inactive).
For `N#CC(C#N)=c1ccc(=C2NCC3CCCN23)cc1` (centres undefined), the GI50 in the test with HOP-62, in the test with UO-31, with OVCAR-8, with MOLT-4, with IGROV-1 and in the test on OVCAR-4 was > 100 µM (inactive) throughout. The GI50 in the test with SF-539, with SNB-75, in the test with Malme-3M, in the test with M14, with SW-620 and with SN12C was > 100 µM (inactive) in each case. The GI50 in the test on COLO 205 was > 100 µM (inactive).
`COC(=O)[C@@]12C3=NO[C@]1(C(=O)OC)C(O[Si](C)(C)C(C)(C)C)C1OC(C)(C)OC1[C@@H]2[C@@H](OCc1ccccc1)CC3` (some centres undefined): the GI50 in the test with SK-MEL-28 is > 100 µM (inactive); in the test on UO-31, 8.85 µM (inactive); in the test on OVCAR-8, > 100 µM (inactive); in the test on MOLT-4, 7.52 µM (inactive); with IGROV-1, > 100 µM (inactive); in the test on EKVX it was > 100 µM (inactive). In addition, the GI50 with OVCAR-4 was 23.9 µM (inactive); in the test with SF-539 it was > 100 µM (inactive); with SNB-75, 9.66 µM (inactive); with OVCAR-3, 39.7 µM (inactive); in the test on M14 it was 43.9 µM (inactive); with SW-620, > 100 µM (inactive). Also, the values for the GI50 in the test on SN12C and with COLO 205 were > 100 µM (inactive) and 83.8 µM (inactive), respectively.
